The conditions of series [1]: rat, in vivo, iv, 100 umol/kg.
Text: Hierfür wurde nach einmaliger intravenöser Applikation (via einer Caudalvene) der Substanzen (Dosis: ≈ 100 µmol Metall pro kg Körpergewicht) die Substanzkonzentration im Blut (basierend auf dem Gd- bzw. Dy-Gehalt) über einen Zeitraum bis zu 120 Minuten p. i. mittels ICP-AES bestimmt. Die pharmakokinetischen Parameter: Verteilungsvolumen (Vss), Gesamtclearance (CLtot) und Eliminationshalbwertszeit (tb) wurden mit einem speziellen Computerprogramm (TOPFIT 2.0; Thomae, Schering, Gödecke) berechnet, wobei ein Zwei-Kompartment-Distributionsmodell zu Grunde gelegt wurde.
Die Gd- und Dy-Gehalte im Blut wurden mittels ICP-AES bestimmt.
Hierfür wurde nach einmaliger intravenöser Applikation (via einer Caudalvene) der Substanzen (Dosis: ≈ 100 µmol Metall pro kg Körpergewicht) die Substanzkonzentration im Blut (basierend auf dem Metallgehalt) über einen Zeitraum bis zu 120 Minuten p. i. mittels ICP-AES bestimmt. Die pharmakokinetischen Parameter: Verteilungsvolumen (Vss), Gesamtclearance (CLtot) und Eliminationshalbwertszeit (tb) wurden mit einem speziellen Computerprogramm (TOPFIT 2.0; Thomae, Schering, Gödecke) berechnet, wobei ein Zwei-Kompartment-Distributionsmodell zu Grunde gelegt wurde.
A short description of series [2]: Diffusibility: in vivo comparison with an intravasal and an extracellular contrast agent, ligated renal vessels. Conditions: for Prozentsatz der im Blutraum verbliebenen Dosis: i.v. 20 µmol/kg each, ligated renal vessels, relative to Verbindung 2 set as 100 %. The procedure: (§1) Als Versuchstiere dienten drei 250 g schwere, männliche (Schering-SPF-) Ratten. Den Tieren wurden die Nierengefäße abgebunden, um eine renale Eliminierung zu verhindern und bei angenommener vernachlässigbarer faekaler Eliminierung ein Maß für Diffusibilität der erfindungsgemäßen Formulierung aus dem Blut in das umgebende Gewebe zu erhalten. Je Tier wurden 0.5 ml (jeweils 10 mmol/L) der folgenden Kontrastmittel-Lösung intravenös appliziert: Gemisch aus je 1 Teil der Verbindung des Beispiels 1g, im folgenden Verbindung 1 genannt, des intravasalen Kontrastmittels Eu-DTPA-Albumin, im folgenden Verbindung 2 genannt, und des extrazellulären Kontrastmittels Dy-DTPA, im folgenden Verbindung 3 genannt. Über einen Katheter in der Arteria carotis communis wurden Blutproben zu folgenden Zeitpunkten entnommen: 15, 30, 45, 60, 90 sec, 3, 5, 10, 15 min p.i. In den gewonnenen Blutproben wurden jeweils parallel die Konzentrationen an Gadolinium (Gd), Europium (Eu) und Dysprosium (Dy) mittels Atomemissionsspektrometrie (ICP-AES) gemessen. Der im Blutraum verbliebene Anteil des intravasalen Kontrastmittels Verbindung 2 (Eu) wurde als 100 % gesetzt. Der im Blutraum verbliebene Anteil der erfindungsgemäßen Formulierung Verbindung 1 (Gd) und der Verbindung 3 (Dy, extrazelluläre Vergleichssubstanz) konnte durch die unterschiedliche Markierung im gleichen Tier verglichen werden und wurde prozentual ins Verhältnis zur Konzentration der Verbindung 2 gesetzt. Damit liefern diese Daten Angaben über den Verbleib der Verbindungen im Intravasalraum.

A short description of series [3]: Contrast-enhanced MR angiography (3D FLASH, 2.0 Tesla). In kind it is in vivo, Ratten (Han. Wistar). The following applies: directly after single i.v. 50 µmol/kg or 100 µmol/kg; 3 D FLASH 10/2.6/40°. How it is done:
Die Untersuchungen zur kontrastmittelgetützten MR Angiographie wurden an einem experimentellen MRT System (SISCO SIS 85, 2.0 Tesla) mit einer 3 D FLASH Technik (10/2.6/40°) durchgeführt. Um die Wirksamkeit von Kontrastmitteln zur Darstellung von Blutgefäßen zu bestimmen, wurden narkotisierte (Rompun® + Ketavet®,1 + 1, v/v; ≈ 1 ml pro kg Körpergewicht, i. m.) Ratten (Han. Wistar; ≈ 200 g Körpergewicht) MR-tomographisch untersucht.
Figur 4 zeigt Abbildungen dieses Experiments. Die MIP (maximal intensity projection)-Bilder wurden berechnet aus den 3 D FLASH Experimenten vor (links) und direkt nach einmaliger i. v. Applikation von 50 µmol / kg (mitte) bzw. 100 µmol /kg (rechts) der Substanz aus Beispiel 1 g.

Series [4] in a line: T1 relaxivity in human plasma (Minispec pc 20). Format: physicochemical. Conditions: for R^1 (T^1-Relaxivity): 0.47 T, 20 MHz, 37 °C, Humanplasma, normalised to one metal atom.
A short description of series [5]: Excretion after s.c. administration: metal retention in liver, kidneys, spleen. Format: in vivo, Meerschweinchen. Conditions: 10 µmol/kg interstitial, MW ± SD, n=2. The source says: Nach subkutaner Gabe von 10 µmol Gesamtgadolinium (Beispiel 19) /kg Körpergewicht in die Hinterpfote des Meerschweines wurde 7 Tage nach Applikation die Retention des Metalls in der Leber, in den Nieren sowie in der Milz untersucht.

Series [6] in a line: Lymph node accumulation in stimulated guinea pigs after s.c. administration (ICP-AES). The following applies: 10 µmol/kg s.c. hind paw, MW ± SD, n=3. In kind it is in vivo, Meerschweinchen. An excerpt: Die erfindungsgemäßen Verbindungen erfüllen alle Voraussetzungen, die von Kontrastmitteln in der indirekten NMR-Lymphographie verlangt werden: gute lokale Verträglichkeit, rascher Abtransport vom Injektionsort, rasche und weitestgehend vollständige Ausscheidung aus dem Gesamtorganismus. Ferner zeigen sie eine hohe Anreicherung über mehrere Lymphknotenstationen und erlauben damit relevante diagnostische Aussagen. So konnte am Meerschweinchenmodell eine hohe Anreicherung über mehrere Lymphknotenstationen (popliteal, inguinal, iliakal) nach s.c. Gabe (2,5-10 µmol/kg Körpergewicht, Injektion in Zwischenzehenräume der Hinterpfote) gezeigt werden. In besonders geeigneten Fällen wurden so in der zweiten (inguinal) und dritten (iliakal) Station noch Gadoliniumkonzentrationen von jeweils ≥ 200 bzw. ≥ 300 µmol/l erhalten. Üblicherweise sind mit den erfindungsgemäßen Verbindungen Lymphknotenkonzentrationen bis zu 1000 µmol/l zu erhalten.
Der Gadolinium-Komplex des Beispiels 19 wurde 30 Min./ 90 Min. nach subkutaner Gabe (10 µmol Gesamtgadolinium/kg KG, Hinterpfote s.c.) an stimulierten Meerschweinchen (komplettes Freund-Adjuvant; jeweils 0,1 ml i.m. in den rechten und linken Ober- und Unterschenkel; 2 Wochen vor Gabe der Prüfsubstanz) hinsichtlich ihrer Lymphknotenanreicherung in drei aufeinanderfolgenden Lymphknotenstationen (popliteal, inguinal, iliakal) untersucht. Hierbei wurden die nachfolgend aufgelisteten Ergebnisse (Ermittlung der Gadolinium-Konzentration mittels ICP-AES) erhalten: […]

A short description of series [7]: Retention of the contrast metal at the injection site (paw). Format: in vivo, Meerschweinchen. Conditions: 10 µmol/kg interstitial, MW ± SD, n=3. The source says:
Nach s.c. Gabe von 10 µmol Gesamtgadolinium (Beispiel 19)/kg Körpergewicht in die Meerschweinchenpfote wurde die Retention des Metalls am Injektionsort zu verschiedenen Zeitpunkten untersucht.

For series [8] the following is noted: 39 °C, 0,47 T; cited from earlier work.
Series [9] can be described thus: Diffusibility: in vivo comparison with an intravasal and an extracellular contrast agent, ligated renal vessels. Details: species or system Ratte. Conditions: i.v. 20 µmol/kg each, relative to Verbindung 2 set as 100 %. How it is done: as §1

One may read the Vss as a proportionality between amount in the body and measured concentration, not a real space. In series [1], “1,4,7-Tris {1,4,7-tris(N-carboxylatomethyl)-10-(N-1-methyl-3,6-diaza-2,5,8-trioxooctan-1,8-diyl)-1,4,7,10-tetraazacyclododecan, Gd-Komplex}-10-(N-2H,2H,4H,4H,5H,5H-3-oxa-perfluor-tridecanoyl)-1,4,7,10-tetraazacyclododecan [Beispiel 1g]” had a CL tot of 0.41 mL/min/kg and a volume of distribution (Vss) of 0.09 L/kg. Besides, the “Prozentsatz der im Blutraum verbliebenen Dosis” value in [2] (30 sec p.i.) turned out to be 84%. In addition, the “Prozentsatz der im Blutraum verbliebenen Dosis” value in [2] (3 min p.i.) came to 62%. For the same molecule, the “Prozentsatz der im Blutraum verbliebenen Dosis” value in series [2] (10 min p.i.) is recorded as 44%. The “Blutkonzentrationen verglichen mit dem extrazellulären Kontrastmittel” value in series [2] (early time points) is listed as “deutlich höhere Blutkonzentrationen”. Also, the “Diffusion in das Interstitium im Vergleich zu Eu-DTPA-BSA (Verbindung 2)” value in series [2] (first minute p.i.) is on record as “nur geringfügig schneller”. For the same molecule, the “Diffusion in das Interstitium im Vergleich zu Dy-DTPA (Verbindung 3)” value in series [2] (whole duration of the experiment) is “langsamer”. Besides, in series [3], the “Signalanstieg in den Blutgefäßen (MIP-Bilder)” value is recorded as “ausgeprägter Signalanstieg in den Blutgefäßen und eine deutliche Kontrastierung zum Normalgewebe”. In series [4], the “R^1 (T^1-Relaxivity)” value is given as 19,5 L/mmol * sec and the “Relaxivity (r1, Plasma)” value is “≈ 19.5 1*mmol^- ^1*s^-1”.
`CCN(CC(=O)N1CCN(C(=O)CNC(=O)CNC(=O)C(C)N2CCN(CC(=O)[O-])CCN(CC(=O)[O-])CCN(CC(=O)[O-])CC2)CCN(C(=O)CNC(=O)CNC(=O)C(C)N2CCN(CC(=O)[O-])CCN(CC(=O)[O-])CCN(CC(=O)[O-])CC2)CCN(C(=O)CNC(=O)CNC(=O)C(C)N2CCN(CC(=O)[O-])CCN(CC(=O)[O-])CCN(CC(=O)[O-])CC2)CC1)S(=O)(=O)C(F)(F)C(F)(F)C(F)(F)C(F)(F)C(F)(F)C(F)(F)C(F)(F)C(F)(F)F.[Gd+3].[Gd+3].[Gd+3]` (stereo not shown) [Beispiel 19, 1,4,7-Tris{1,4,7-tris(N-carboxylatomethyl)-10-[N-(4,7-diaza-3,6,9-trioxo)-nonan-2,9-diyl]-1,4,7,10-tetraazacyclododecan, Gd-Komplex}-10-[N-acetyl-(2-amino-N-ethyl-N-perfluor-octylsulfonyl)]-1,4,7,10-tetraazacyclododecan]: in [5], the “Gadolinium-Gehalt in den Organen 7 d p.i., Leber” value stood at 0.09 ± 0.09 % Dosis; the “Gadolinium-Gehalt in den Organen 7 d p.i., Milz” value amounted to 0.00 ± 0.01 % Dosis; the “Gadolinium-Gehalt in den Organen 7 d p.i., Nieren” value is recorded as 0.06 ± 0.04 % Dosis. In series [1], this molecule came in with a CL tot of 0.94 mL/min/kg and a distribution volume (Vss) of 0.12 L/kg. In series [6] (30 min p.i.), the “Gd-Konzentration, Blut” value stood at 24 ± 3 µmol/L; the “Gd-Konzentration, Lymphknoten iliakal” value came out at 50 ± 18 µmol/L; the “Gd-Konzentration, Lymphknoten inguinal profund” value is 43 ± 41 µmol/L; the “Gd-Konzentration, Lymphknoten popliteal” value amounted to 345 ± 319 µmol/L. In series [6] (30 min p.i.), the “Gd-Konzentration, Urin” value was 261 ± 167 µmol/L. For the same molecule, in series [6] (90 min p.i.), the “Gd-Konzentration, Blut” value stood at 25 ± 4 µmol/L; the “Gd-Konzentration, Lymphknoten iliakal” value came out at 20 ± 8 µmol/L; the “Gd-Konzentration, Lymphknoten inguinal profund” value worked out at 9 ± 2 µmol/L; the “Gd-Konzentration, Lymphknoten popliteal” value came to 75 ± 20 µmol/L. In series [6] (90 min p.i.), the “Gd-Konzentration, Urin” value came to 348 ± 119 µmol/L. Moreover, the “Gadolinium-Konzentration an der Injektionsstelle (Pfote)” value in series [7] (30 min p.i.) was 48,4 ± 10,4 % Dosis. Moreover, the “Gadolinium-Konzentration an der Injektionsstelle (Pfote)” value in series [7] (90 min p.i.) is 8,0 ± 1,7 % Dosis. In addition, the “Gadolinium-Konzentration an der Injektionsstelle (Pfote)” value in [7] (7 d p.i.) is 0,7 ± 0,6 % Dosis. Further, in series [4], the “R^1 (T^1-Relaxivity)” value is given as 21,4 L/mmol * sec and the “Relaxivity (r1, Plasma)” value is listed as “≈ 19.5 1*mmol^- ^1*s^-1”.
For the molecule `C[NH2+]C[C@@H](O)[C@@H](O)[C@H](O)[C@@H](O)CO.C[NH2+]C[C@@H](O)[C@@H](O)[C@H](O)[C@@H](O)CO.O=C([O-])CN(CCN(CC(=O)[O-])CC(=O)[O-])CCN(CC(=O)[O-])CC(=O)[O-].[Gd+3]` [Magnevist ®, Di-N-methylglucaminsalz des Gd-DTPA-Komplexes, reference compound], the “T^1-Relaxivity” value in series [8] is recorded as 3,5 - 4,9 mM^-1 · sec^-1. The “R^1 (T^1-Relaxivity)” value in [4] was 4,8 L/mmol * sec.
As for `CNC(=O)CN(CCN(CCN(CC(=O)[O-])CC(=O)NC)CC(=O)[O-])CC(=O)[O-].[Gd+3]` [Omniscan®], the “T^1-Relaxivity” value in [8] was 3,5 - 4,9 mM^-1 · sec^-1.
Turning to `CC(O)CN1CCN(CC(=O)[O-])CCN(CC(=O)[O-])CCN(CC(=O)[O-])CC1.[Gd+3]` (stereo not shown) [Pro Hance®], the “T^1-Relaxivity” value in series [8] is listed as 3,5 - 4,9 mM^-1 · sec^-1.
In series [1], Dy-DTPA [reference compound] came in with a volume of distribution (Vss) of 0.17 L/kg. Moreover, the “Prozentsatz der im Blutraum verbliebenen Dosis” value stood at 48% in series [2] (30 sec p.i.), 25% in series [2] (3 min p.i.) and 21% in [2] (10 min p.i.).
“Gadolinium-III-Komplex des 1,4,7,10-Tetracarboxymethyl-1,4,7,10-tetraazacyclododecans [Dotarem®]”: in [8], the “T^1-Relaxivity” value is given as 3,5 - 4,9 mM^-1 · sec^-1.
As for “Verbindung 2: intravasales Kontrastmittel Eu-DTPA-Albumin”, the “Prozentsatz der im Blutraum verbliebenen Dosis” value in series [9] (30 sec p.i.), in series [9] (3 min p.i.) and in [9] (10 min p.i.) was 100% in each case.

Source of the values: patent EP0993306B1, “PERFLUOROALKYLATED OLIGOMER COMPOUNDS, PROCESS FOR PREPARING THE SAME AND THEIR USE IN NMR DIAGNOSIS” (SCHERING AKTIENGESELLSCHAFT, priority 1997, dated 1999).
